According to article PMC9414233, “Iridoid Glycosides Isolated from Bellardia trixago Identified as Inhibitors of Orobanche cumana Radicle Growth” (Toxins, 2022):
In brackets after ≈: the same amount, converted by molar mass.

Assays:
[1] = test system: radicles of Orobanche crenata; set-up: method as in PMID 24044614; settings: cited from earlier work
[2] = test system: Orobanche cumana radicles; test: Orobanche cumana radicle growth bioassay; type: in vivo; settings: for inhibition at 100 µg/mL: 168 h; for inhibition at 100 µg/mL / inhibition of radicle growth: 100 μg/mL, 7 days, relative to control (GR24 + 2% DMSO), ± standard error
Method: Allelopathic effects of each B. trixago extracts and isolated compounds were tested on Orobanche radicle growth according to previous protocols. Seeds of Orobanche cumana, were surface-sterilized by immersion in 0.5% (w/v) NaOCl and 0.02% (v/v) Tween 20, for 5 min, rinsed thoroughly with sterile distilled water, and dried in a laminar airflow cabinet. Approximately 100 seeds of Orobanche seeds were placed separately on 9 mm-diameter glass fiber filter paper disks (GFFP) (Whatman International Ltd., Maidstone, UK), moistened with 50 μL of sterile distilled water, and placed in incubators at 23 °C for 10 days inside Parafilm-sealed Petri dishes, to allow seed conditioning. Then, GFFP disks containing conditioned Orobanche seeds were transferred onto a sterile sheet of filter paper and transferred to new 9 cm sterile Petri dishes. Stock solutions of each B. trixago extract and isolated metabolite were respectively dissolved in dimethyl sulfoxide and subsequently individually diluted to 100 μg/mL using an aqueous solution of GR24 (10^−6 M). The final concentration of dimethyl sulfoxide was 2% in all test treatments. For each assay, 50 μL aliquots of each sample were applied to GFFP discs containing conditioned Orobanche seeds. Triplicate aliquots of a treatment only containing GR24 and 2% dimethyl sulfoxide was used as a control. Treated seeds were incubated in the dark at 23 °C for 7 days and radicle growth was determined for each GFFP disc, using a stereoscopic microscope (Leica S9i, Leica Microsystems GmbH, Wetzlar, Germany). For the characteristic of radicle growth, the value used was the average of 10 randomly selected radicles per GFFP disc. The percentage of radicle growth inhibition of each treatment was then calculated relative to the average radicle growth of control treatment.

[3] = set-up: method as in doi:10.1076/phbi.37.4.318.5808, PMID 12036030; settings: cited from earlier work
[4] = set-up: method as in doi:10.1076/phbi.37.4.318.5808; settings: cited from earlier work
[5] = test system: Raphidocelis subcapitata; test: Algal growth inhibition test (ISO 8692:2012); type: in vivo; settings: 72 h
Method: (§1) The ecotoxicological tests were carried out on green freshwater algae Raphidocelis subcapitata, macrophyte Lepidium sativum, water flea Daphnia magna, nematode Caenorhabditis elegans and bacterium Aliivibrio fischeri to expand the range of endpoints due to differences in species sensitivity and exposure. Testing on R. subcapitata was performed using as endpoint the algal growth inhibition after 72 h of exposure and was based on ISO 8692:2012 [65]. The algal density was determined by spectrophotometric analysis (DR5000, Hach Lange GbH, Weinheim, Germany). Ecotoxicity tests were carried out in triplicate, at 25 ± 1 °C with constant illumination of 6700 lux. Testing on L. sativum was performed according to ISO 11269-1:2012 [66] considering germination and root elongation as endpoint after 72 h. Seeds (n = 10) were exposed in triplicate in Petri dishes and incubated at 25 ± 1 °C in darkness. Daphnia magna test was conducted according to UNI EN ISO 6341:2013 [67] and the endpoint evaluated was the immobilization after 24 h. Daphnids (less than 24 h old) were exposed to the samples at 20 ± 2 °C, in darkness without feeding. Testing on C. elegans was carried out, with a few modifications, according to the ASTM E2172-01 Standard Method (2014) using the 24 h mortality endpoint. The test was performed using age-synchronous adult nematodes exposed at 20 °C to compound 4, without feeding. […]

[6] = test system: Lepidium sativum; test: whole plant or invertebrate; type: in vivo; settings: 72 h, read-out: EC50 (germination and root elongation)
Method: as §1

[7] = test system: Daphnia magna; test: Daphnia magna immobilization test (UNI EN ISO 6341:2013); type: in vivo; settings: 24 h
Method: as §1

[8] = test system: Caenorhabditis elegans; test: C. elegans 24 h mortality test (ASTM E2172-01); type: in vivo
Method: as §1

[9] = test system: Aliivibrio fischeri; test: Bioluminescence inhibition test (ISO 11348-3:2007, Microtox); type: in vivo; settings: 0.5 h, 30 min
Method: as §1

[10] = test system: Wistar rats; set-up: method as in PMID 23195582; settings: cited from earlier work

Compound	inhibition at 100 µg/mL [2]	inhibition of radicle growth [2]	DPPH scavenging activity [3]	antioxidant activity in β-carotene bleaching assay [4]	other results
O=C(O)c1ccccc1 [Compound 1, benzoic acid]	–	–	–	–	inhibitory activity on radicles [1]: moderate inhibitory activity
OCC1=CC[C@@H]2C=CO[C@@H](O[C@@H]3O[C@H](CO)[C@@H](O)[C@H](O)[C@H]3O)[C@H]12 [Compound 2, bartsioside]	61.1 ± 1.5%	–	–	–	–
OCC1=C[C@@H](O)[C@@H]2C=CO[C@@H](O[C@@H]3O[C@H](CO)[C@@H](O)[C@H](O)[C@H]3O)[C@H]12 [Compound 3, aucubin]	–	no significant inhibitory activity	no DPPH scavenging activity	inactive	–
O=C(OCC1=C[C@@H](O)[C@@H]2C=CO[C@@H](O[C@@H]3O[C@H](CO)[C@@H](O)[C@H](O)[C@H]3O)[C@H]12)c1ccccc1 [Compound 4, melampyroside]	72.6%	–	no DPPH scavenging activity	pro-oxidant	phytotoxicity observed on radicles ([2]; 100 µg/mL): some degree of phytotoxicity observed as darkening; EC50 [5]: ≥ 100 µg/mL; EC50 [6]: ≥ 100 µg/mL; EC50 [7]: 33.3 µg/mL (≈ 73.8 µM); EC50 [8]: 57.2 µg/mL (≈ 127 µM); EC50 [9]: 76 µg/mL (≈ 169 µM); cardioactivity [10]: cardioactive
C=C1[C@H]2[C@H](O[C@@H]3O[C@H](CO)[C@@H](O)[C@H](O)[C@H]3O)OC=C(C(=O)OC)[C@H]2C[C@@H]1O [Compound 5, gardoside methyl ester]	–	no significant inhibitory activity	–	–	–
COC(=O)C1=CO[C@@H](O[C@@H]2O[C@H](CO)[C@@H](O)[C@H](O)[C@H]2O)[C@H]2[C@@H]1CC[C@]2(C)O [Compound 6, mussaenoside]	65.9 ± 2.9%	–	no DPPH scavenging activity	antioxidant	–
